Values after ≈ are worked out from the molar mass of the structure shown.
How the values were obtained:
Format in all cases: cell-based
[1] = test system: ATCC13883 strain (Klebsiella pneumoniae); assay: Checkerboard antibacterial synergistic activity test with polymyxin E (FIC); parameters: key: FIC≤0.5 synergy; 0.5–1 additive; 1–2 indifferent; ≥2 antagonism; settings: combined with polymyxin E
Outline: (§1)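 Checkerboard in MH broth: colistin dilutions 16→0.015 μg/ml × test drug 256→4 μg/ml (concentrations before adding inoculum); drug mix plus bacteria, 37° C., 16 h. FIC cut-offs: ≤0.5 synergy; 0.5–1 additive; 1–2 indifferent; ≥2 antagonism.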

[2] = test system: ATCC19606 strain (Acinetobacter baumannii); assay: as above; parameters: key: FIC≤0.5 synergy; 0.5–1 additive; 1–2 indifferent; ≥2 antagonism; settings: combined with polymyxin E
Outline: as §1

[3] = test system: ATCC25922 strain (Escherichia coli); assay: as above; parameters: key: FIC≤0.5 synergy; 0.5–1 additive; 1–2 indifferent; ≥2 antagonism; settings: combined with polymyxin E
Outline: as §1

[4] = test system: ATCC9027 strain (Pseudomonas aeruginosa); assay: as above; parameters: key: FIC≤0.5 synergy; 0.5–1 additive; 1–2 indifferent; ≥2 antagonism; settings: combined with polymyxin E
Outline: as §1

[5] = test system: ATCC13883 strain (Klebsiella pneumoniae); assay: Broth microdilution, antibacterial activity of the compound used alone; settings: for MIC: read-out: Antibacterial activity of the compound of Formula I, ATCC13883
From the text: (§2) The broth microdilution method was used to test the antibacterial effects of the compounds of the present invention against various Gram-negative bacterial strains when used alone.

[6] = test system: ATCC19606 strain (Acinetobacter baumannii); assay: as above; settings: for MIC: read-out: Antibacterial activity of the compound of Formula I, ATCC19606
From the text: as §2

[7] = test system: ATCC25922 strain (Escherichia coli); assay: as above; settings: for MIC: read-out: Antibacterial activity of the compound of Formula I, ATCC25922
From the text: as §2

[8] = test system: ATCC9027 strain (Pseudomonas aeruginosa); assay: as above; settings: for MIC: read-out: Antibacterial activity of the compound of Formula I, ATCC9027
From the text: as §2

Compound | Synergistic activity (FIC value) ATCC13883 [1] | Synergistic activity (FIC value) ATCC19606 [2] | Synergistic activity (FIC value) ATCC25922 [3] | Synergistic activity (FIC value) ATCC9027 [4] | Antibacterial activity of the compound of Formula I, ATCC13883 [5] | Antibacterial activity of the compound of Formula I, ATCC19606 [6] | Antibacterial activity of the compound of Formula I, ATCC25922 [7] | Antibacterial activity of the compound of Formula I, ATCC9027 [8] | MIC [5] | MIC [6] | MIC [7] | MIC [8]
CC(=O)c1ccc(-c2csc(N=C(N)N)n2)cc1 [Compound I-24] | 1.25 | 0.5 | 1.25 | 1.25 | 256 µg/mL | 256 µg/mL | 256 µg/mL | 256 µg/mL |  |  |  | 
Clc1cc(Cl)cc(-c2csc(N=C3NCCCN3)n2)c1 [Compound I-187] | 0.31 | 0.25 | 0.56 | 0.5 | 128 µg/mL | 256 µg/mL | 128 µg/mL | 64 µg/mL |  |  |  | 
NC(N)=Nc1nc(-c2ccc3c(c2)COc2c-3ccc3c2C(=O)CCC3)cs1 [Compound I-119] | 0.19 | 1.25 | 1.25 | 1.25 | 256 µg/mL | 256 µg/mL | 256 µg/mL | 256 µg/mL |  |  |  | 
NC(N)=Nc1nc(-c2cccc(Oc3ccccc3I)c2)cs1 [Compound I-96] | 0.16 | 0.03 | 0.18 | 0.28 | 256 µg/mL | 256 µg/mL | 256 µg/mL | 256 µg/mL |  |  |  | 
Clc1ccc(Oc2ccccc2)c(-c2coc(N=C3NCCCN3)n2)c1 [Compound I-134] | 0.53 | 1.25 | 1.25 | 0.52 | 256 µg/mL | 256 µg/mL | 256 µg/mL | 256 µg/mL |  |  |  | 
Cc1ccccc1Oc1cccc(-c2coc(N=C3NCCCN3)n2)c1 [Compound I-152] | 0.19 | 0.38 | 0.04 | 0.04 | 256 µg/mL | 256 µg/mL | 256 µg/mL | 256 µg/mL |  |  |  | 
Cc1cc(C)c(-c2csc(N=C(N)N)n2)c(C)c1 [Compound I-51] | 1.25 | 1.25 | 0.5 | 1.25 |  |  |  |  | 256 µg/mL (≈ 983 µM) | 256 µg/mL (≈ 983 µM) | 256 µg/mL (≈ 983 µM) | 256 µg/mL (≈ 983 µM)
COc1ccc(Oc2cc(Br)cc(-c3csc(N=C4NCCCN4)n3)c2)c(OC)c1 [Compound I-159] | 0.09 | 0.31 | 0.14 | 0.06 | 256 µg/mL | 256 µg/mL | 256 µg/mL | 256 µg/mL |  |  |  | 
COc1ccc(-c2csc(N=C(N)N)n2)cc1 [Compound I-6] | 1.25 | 0.75 | 0.5 | 1.25 | 256 µg/mL | 256 µg/mL | 256 µg/mL | 256 µg/mL |  |  |  | 
CS(=O)(=O)Nc1cccc(-c2csc(N=C(N)N)n2)c1 [Compound I-32] | 1.25 | 0.25 | 1.25 | 0.52 | 256 µg/mL | 256 µg/mL | 256 µg/mL | 256 µg/mL |  |  |  | 
NC(N)=Nc1nc(-c2cccc(NS(=O)(=O)c3ccccc3)c2)cs1 [Compound I-111] | 0.25 | 0.5 | 0.63 | 1.25 |  |  |  |  | 256 µg/mL (≈ 685 µM) | 256 µg/mL (≈ 685 µM) | 256 µg/mL (≈ 685 µM) | 256 µg/mL (≈ 685 µM)
CCc1sc(N=C2NCCCN2)nc1-c1cc(C)c(F)c(C)c1 [Compound I-172] | 0.52 | 0.52 | 0.63 | 1.25 | 128 µg/mL | 256 µg/mL | 128 µg/mL | 64 µg/mL |  |  |  | 
Cc1ccccc1Oc1ccccc1-c1nc(N=C2NCCCN2)oc1Cl [Compound I-142] | 0.09 | 0.31 | 0.14 | 0.06 | 256 µg/mL | 256 µg/mL | 256 µg/mL | 256 µg/mL |  |  |  | 
NC(N)=Nc1nc(C2CC3CC4CC3CC2C4)cs1 (centres unmarked) [Compound I-117] | 0.25 | 0.5 | 0.63 | 1.25 |  |  |  |  | 64 µg/mL (≈ 232 µM) | 256 µg/mL (≈ 926 µM) | 32 µg/mL (≈ 116 µM) | 16 µg/mL (≈ 57.9 µM)
Cc1ccc(Oc2ccccc2-c2csc(NC3=NCCCN3)n2)c(C)c1 [Compound I-143] | 0.19 | 0.38 | 0.04 | 0.04 |  |  |  |  | 256 µg/mL (≈ 676 µM) | 256 µg/mL (≈ 676 µM) | 256 µg/mL (≈ 676 µM) | 256 µg/mL (≈ 676 µM)
Cc1ccc(O)c(-c2c[nH]c(N=C3NCCCN3)n2)c1 [Compound I-170] | 0.31 | 0.12 | 0.38 | 0.31 | 256 µg/mL | 256 µg/mL | 256 µg/mL | 256 µg/mL |  |  |  | 
